The record followed here is ChEMBL document CHEMBL1201862, “PubChem BioAssay data set” (2004).

Holding throughout (test): NCI tumour cell line growth inhibition, 48 h
Assay [1] concerns HCT-116.
Assay [2] relates to HCT-15.
In assay [3] the test system is CAKI-1.
For assay [4], the system named is Malme-3M.
The test system of assay [5] is CCRF-CEM.
For assay [6], the system named is RXF 393.
Assay [7] concerns NCI-H522.
Assay [8] relates to K562.
Assay [9] relates to UACC-62.
The subject of assay [10] is A498.
For assay [11], the system named is ACHN.
In assay [12] the test system is OVCAR-5.
Assay [13] relates to M14.
The subject of assay [14] is SK-MEL-5.
The subject of assay [15] is SK-MEL-28.
Assay [16] relates to RPMI-8226.
Assay [17] deals with A549.
The subject of assay [18] is OVCAR-8.
In assay [19] the test system is U-251.
Assay [20] relates to SNB-75.

Each structure is given as a SMILES string.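 A five-concentration, 48-hour dose response in 96-well plates underlies each endpoint, interpolated linearly between surrounding concentrations. GI50: concentration for 50% inhibition of growth.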 Active and inactive are the calls of the source. No stated cut-off is given here; in the data, active = GI50 up to about 1.1 µM and inactive = higher.

With `CON(C)c1nc(N(C)OC)nc(N(C)OC)n1`, the GI50 is > 10 µM (inactive) in [1]; over 10 µM in assay [2]; > 10 µM (inactive) in assay [3]; > 10 µM (inactive) in assay [4]; > 10 µM (inactive) in [5]; > 10 µM (inactive) in assay [6]. For the same compound, the GI50 in assay [7], in assay [8], in [9], in assay [10], in [11] and in assay [12] was > 10 µM (inactive) throughout. Further, the GI50 in assay [13], in assay [14], in assay [15], in assay [16], in [17] and in [18] was > 10 µM (inactive) throughout. For the same compound, the GI50 in [19] and in assay [20] was > 10 µM (inactive) in each case.
On to `COCCCNc1nc(N)c(C#N)c(C#N)c1C#N`, for which the GI50 in assay [1] was > 10 µM (inactive); in [2] it was over 10 µM; in [3] it was > 10 µM (inactive); in assay [4] it was > 10 µM (inactive); in assay [5] it was 2.48 µM (inactive); in [6] it was > 10 µM (inactive). Besides, the GI50 was > 10 µM (inactive) in [7]; 2.72 µM (inactive) in [8]; > 10 µM (inactive) in assay [9]; > 10 µM (inactive) in assay [10]; > 10 µM (inactive) in assay [11]; > 10 µM (inactive) in assay [12]. In addition, the GI50 in assay [13], in [14], in [15], in [16], in [17] and in assay [18] was > 10 µM (inactive) throughout. Moreover, the GI50 in [19] and in [20] was > 10 µM (inactive) throughout.
